Tested on: 519858-162-T-J1-PDC complex spheroid growth, % test/control
Assay: Anticancer human tumor 519858-162-T-J1-PDC patient-derived colon adenocarcinoma cell line growth inhibition [Asc]
Details: for IC50: curve of first compound; for viability, T/C: stronger effect = lower value
Method in brief: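 Complex solid-tumor spheroids incorporating human endothelial and mesenchymal stem cells received single agents or combinations over half-log dilution ranges anchored to clinical Cmax.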
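Further: seven day drug exposure begun three days after spheroid seeding.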
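Wherever viability, T/C is given: 100% = DMSO vehicle wells and lower values mean less viable spheroid.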

With `O=C(c1cc(Cc2n[nH]c(=O)c3ccccc23)ccc1F)N1CCN(C(=O)C2CC2)CC1` + CCN1C(C(=O)NC23CCC(C(=O)O)(CC2)CC3)C(c2cccc(Cl)c2F)C2(C(=O)Nc3cc(Cl)ccc32)C12CCCCC2 the IC50 (second compound 0.00949 µM) was > 10 µM, the IC50 (second compound 0.03 µM) was > 10 µM and the IC50 (second compound 0.0949 µM) was > 10 µM. For the same compound, the IC50 (second compound 0.3 µM) was > 10 µM, the IC50 (second compound 0.949 µM) was > 10 µM and the IC50 (second compound 3 µM) was > 10 µM. The viability, T/C (second compound 0.00949 µM, first compound 0.0316 µM) was 106%, the viability, T/C (second compound 0.00949 µM, first compound 0.1 µM) was 81.9% and the viability, T/C (second compound 0.00949 µM, first compound 0.316 µM) was 101%. The viability, T/C (second compound 0.00949 µM, first compound 1 µM) was 81%, the viability, T/C (second compound 0.00949 µM, first compound 3.16 µM) was 90.8% and the viability, T/C (second compound 0.00949 µM, first compound 10 µM) was 79.4%. The viability, T/C (second compound 0.03 µM, first compound 0.0316 µM) was 130%, the viability, T/C (second compound 0.03 µM, first compound 0.1 µM) was 82.9% and the viability, T/C (second compound 0.03 µM, first compound 0.316 µM) was 127%. The viability, T/C (second compound 0.03 µM, first compound 1 µM) was 93.2%, the viability, T/C (second compound 0.03 µM, first compound 3.16 µM) was 75.2% and the viability, T/C (second compound 0.03 µM, first compound 10 µM) was 74.9%. The viability, T/C (second compound 0.0949 µM, first compound 0.0316 µM) was 117%, the viability, T/C (second compound 0.0949 µM, first compound 0.1 µM) was 103% and the viability, T/C (second compound 0.0949 µM, first compound 0.316 µM) was 101%. The viability, T/C (second compound 0.0949 µM, first compound 1 µM) was 77%, the viability, T/C (second compound 0.0949 µM, first compound 3.16 µM) was 92.7% and the viability, T/C (second compound 0.0949 µM, first compound 10 µM) was 100%. It also gave a viability, T/C (second compound 0.3 µM, first compound 0.0316 µM) of 163%, a viability, T/C (second compound 0.3 µM, first compound 0.1 µM) of 94.9% and a viability, T/C (second compound 0.3 µM, first compound 0.316 µM) of 99.2%. It also gave a viability, T/C (second compound 0.3 µM, first compound 1 µM) of 83.3%, a viability, T/C (second compound 0.3 µM, first compound 3.16 µM) of 85.2% and a viability, T/C (second compound 0.3 µM, first compound 10 µM) of 72.2%. For the same compound, the viability, T/C (second compound 0.949 µM, first compound 0.0316 µM) was 71.9%, the viability, T/C (second compound 0.949 µM, first compound 0.1 µM) was 70.6% and the viability, T/C (second compound 0.949 µM, first compound 0.316 µM) was 76.5%. For the same compound, the viability, T/C (second compound 0.949 µM, first compound 1 µM) was 86.5%, the viability, T/C (second compound 0.949 µM, first compound 3.16 µM) was 85.2% and the viability, T/C (second compound 0.949 µM, first compound 10 µM) was 94%. It also gave a viability, T/C (second compound 3 µM, first compound 0.0316 µM) of 63.8%, a viability, T/C (second compound 3 µM, first compound 0.1 µM) of 89.3% and a viability, T/C (second compound 3 µM, first compound 0.316 µM) of 94.7%. The viability, T/C (second compound 3 µM, first compound 1 µM) was 73.4%, the viability, T/C (second compound 3 µM, first compound 3.16 µM) was 100% and the viability, T/C (second compound 3 µM, first compound 10 µM) was 76%.
`NC(=O)C(=Cn1cnc(-c2cc(C(F)(F)F)cc(C(F)(F)F)c2)n1)c1cncnc1` + Cc1c(S(C)(=O)=O)c(-c2cc(F)cc(N3CCN(c4ccc(NS(=O)(=O)c5ccc(NC(CCN6CCC(C(=O)OCCCP(=O)(O)O)CC6)CSc6ccccc6)c(S(=O)(=O)C(F)(F)F)c5)cc4)CC3)c2)c(-c2ccc(Cl)cc2)n1C(C)C was tested, and the IC50 (second compound 0.0316 µM) was > 0.3 µM, the IC50 (second compound 0.1 µM) was > 0.3 µM and the IC50 (second compound 0.316 µM) was > 0.3 µM. For the same compound, the IC50 (second compound 1 µM) was > 0.3 µM, the IC50 (second compound 3.16 µM) was > 0.3 µM and the IC50 (second compound 10 µM) was > 0.3 µM. It also gave a viability, T/C (second compound 0.0316 µM, first compound 0.000949 µM) of 113%, a viability, T/C (second compound 0.0316 µM, first compound 0.003 µM) of 101% and a viability, T/C (second compound 0.0316 µM, first compound 0.00949 µM) of 87.4%. For the same compound, the viability, T/C (second compound 0.0316 µM, first compound 0.03 µM) was 66%, the viability, T/C (second compound 0.0316 µM, first compound 0.0949 µM) was 97.8% and the viability, T/C (second compound 0.0316 µM, first compound 0.3 µM) was 88.3%. The viability, T/C (second compound 0.1 µM, first compound 0.000949 µM) was 94.2%, the viability, T/C (second compound 0.1 µM, first compound 0.003 µM) was 89.1% and the viability, T/C (second compound 0.1 µM, first compound 0.00949 µM) was 93.7%. It also gave a viability, T/C (second compound 0.1 µM, first compound 0.03 µM) of 78.3%, a viability, T/C (second compound 0.1 µM, first compound 0.0949 µM) of 59.4% and a viability, T/C (second compound 0.1 µM, first compound 0.3 µM) of 98.2%. It also gave a viability, T/C (second compound 0.316 µM, first compound 0.000949 µM) of 97.4%, a viability, T/C (second compound 0.316 µM, first compound 0.003 µM) of 86% and a viability, T/C (second compound 0.316 µM, first compound 0.00949 µM) of 90.9%. It also gave a viability, T/C (second compound 0.316 µM, first compound 0.03 µM) of 60.7%, a viability, T/C (second compound 0.316 µM, first compound 0.0949 µM) of 82.7% and a viability, T/C (second compound 0.316 µM, first compound 0.3 µM) of 74.9%. The viability, T/C (second compound 1 µM, first compound 0.000949 µM) was 86.6%, the viability, T/C (second compound 1 µM, first compound 0.003 µM) was 122% and the viability, T/C (second compound 1 µM, first compound 0.00949 µM) was 65%. For the same compound, the viability, T/C (second compound 1 µM, first compound 0.03 µM) was 83.5%, the viability, T/C (second compound 1 µM, first compound 0.0949 µM) was 71.6% and the viability, T/C (second compound 1 µM, first compound 0.3 µM) was 71.5%. It also gave a viability, T/C (second compound 3.16 µM, first compound 0.000949 µM) of 79.8%, a viability, T/C (second compound 3.16 µM, first compound 0.003 µM) of 79.2% and a viability, T/C (second compound 3.16 µM, first compound 0.00949 µM) of 78.8%. The viability, T/C (second compound 3.16 µM, first compound 0.03 µM) was 50.3%, the viability, T/C (second compound 3.16 µM, first compound 0.0949 µM) was 54.6% and the viability, T/C (second compound 3.16 µM, first compound 0.3 µM) was 79.8%. For the same compound, the viability, T/C (second compound 10 µM, first compound 0.000949 µM) was 58.9%, the viability, T/C (second compound 10 µM, first compound 0.003 µM) was 59.7% and the viability, T/C (second compound 10 µM, first compound 0.00949 µM) was 71.2%. The viability, T/C (second compound 10 µM, first compound 0.03 µM) was 76.3%, the viability, T/C (second compound 10 µM, first compound 0.0949 µM) was 72.4% and the viability, T/C (second compound 10 µM, first compound 0.3 µM) was 60.1%.
In the case of `Cn1ncnc1[C@H]1c2n[nH]c(=O)c3cc(F)cc(c23)N[C@@H]1c1ccc(F)cc1` + CNC(C)C(=O)NC1CN(S(=O)(=O)c2cccc(S(=O)(=O)N3CCC4CCC(C(=O)NC(c5ccccc5)c5ccccc5)N4C(=O)C(NC(=O)C(C)NC)C3)c2)CCC2CCC(C(=O)NC(c3ccccc3)c3ccccc3)N2C1=O, the IC50 (second compound 0.00316 µM) is reported as > 0.1 µM, the IC50 (second compound 0.01 µM) is reported as > 0.1 µM and the IC50 (second compound 0.0316 µM) is reported as > 0.1 µM. For the same compound, the IC50 (second compound 0.1 µM) was > 0.1 µM, the IC50 (second compound 0.316 µM) was > 0.1 µM and the IC50 (second compound 1 µM) was > 0.1 µM. For the same compound, the viability, T/C (second compound 0.00316 µM, first compound 0.000316 µM) was 71.1%, the viability, T/C (second compound 0.00316 µM, first compound 0.001 µM) was 64.9% and the viability, T/C (second compound 0.00316 µM, first compound 0.00316 µM) was 59.8%. The viability, T/C (second compound 0.00316 µM, first compound 0.01 µM) was 62.1%, the viability, T/C (second compound 0.00316 µM, first compound 0.0316 µM) was 60.9% and the viability, T/C (second compound 0.00316 µM, first compound 0.1 µM) was 69.1%. The viability, T/C (second compound 0.01 µM, first compound 0.000316 µM) was 94.7%, the viability, T/C (second compound 0.01 µM, first compound 0.001 µM) was 94.5% and the viability, T/C (second compound 0.01 µM, first compound 0.00316 µM) was 113%. For the same compound, the viability, T/C (second compound 0.01 µM, first compound 0.01 µM) was 86.8%, the viability, T/C (second compound 0.01 µM, first compound 0.0316 µM) was 103% and the viability, T/C (second compound 0.01 µM, first compound 0.1 µM) was 78.4%. The viability, T/C (second compound 0.0316 µM, first compound 0.000316 µM) was 103%, the viability, T/C (second compound 0.0316 µM, first compound 0.001 µM) was 83% and the viability, T/C (second compound 0.0316 µM, first compound 0.00316 µM) was 90.3%. The viability, T/C (second compound 0.0316 µM, first compound 0.01 µM) was 87.5%, the viability, T/C (second compound 0.0316 µM, first compound 0.0316 µM) was 102% and the viability, T/C (second compound 0.0316 µM, first compound 0.1 µM) was 77.6%. It also gave a viability, T/C (second compound 0.1 µM, first compound 0.000316 µM) of 70.6%, a viability, T/C (second compound 0.1 µM, first compound 0.001 µM) of 78.3% and a viability, T/C (second compound 0.1 µM, first compound 0.00316 µM) of 83.4%. The viability, T/C (second compound 0.1 µM, first compound 0.01 µM) was 107%, the viability, T/C (second compound 0.1 µM, first compound 0.0316 µM) was 80.9% and the viability, T/C (second compound 0.1 µM, first compound 0.1 µM) was 97.5%. The viability, T/C (second compound 0.316 µM, first compound 0.000316 µM) was 83.7%, the viability, T/C (second compound 0.316 µM, first compound 0.001 µM) was 99.3% and the viability, T/C (second compound 0.316 µM, first compound 0.00316 µM) was 89.4%. It also gave a viability, T/C (second compound 0.316 µM, first compound 0.01 µM) of 97%, a viability, T/C (second compound 0.316 µM, first compound 0.0316 µM) of 64.3% and a viability, T/C (second compound 0.316 µM, first compound 0.1 µM) of 83.6%. The viability, T/C (second compound 1 µM, first compound 0.000316 µM) was 92.6%, the viability, T/C (second compound 1 µM, first compound 0.001 µM) was 76.3% and the viability, T/C (second compound 1 µM, first compound 0.00316 µM) was 83.3%. It also gave a viability, T/C (second compound 1 µM, first compound 0.01 µM) of 71.3%, a viability, T/C (second compound 1 µM, first compound 0.0316 µM) of 90.6% and a viability, T/C (second compound 1 µM, first compound 0.1 µM) of 78.1%.

From PubChem BioAssay AID1963421 (Molecular Pharmacology Branch, DTP, NCI, 2024)
